The values that follow are results of earlier work, collected in US7939308B2, “Bio-based method for making mannitol” (The United States of America as represented by the …, priority 2002, dated 2011).

SMILES strings stand for the structures. ≈ marks a conversion by molar mass, not a printed value.

For this data set the following is noted: at 25° C.

In the case of `OC[C@@H](O)[C@@H](O)[C@H](O)[C@H](O)CO` [mannitol, Mannitol], the solubility limit is 180 mg/mL (≈ 988 mM).
